Our source for the IC50 values is patent US20260250278A1, “PHENYL-SUBSTITUTED DIHYDRONAPHTHYRIDINE COMPOUNDS, AND PREPARATION AND USE THEREOF” (SUZHONG PHARMACEUTICAL GROUP CO., LTD., priority 2022, published 2026).

The experiment concerns the target T1, mineralocorticoid receptor (MR) (Homo sapiens, UniProt P08235).
T1 construct: expressed in transfected cells
T1 sequence (P08235 726-964 limits assumed): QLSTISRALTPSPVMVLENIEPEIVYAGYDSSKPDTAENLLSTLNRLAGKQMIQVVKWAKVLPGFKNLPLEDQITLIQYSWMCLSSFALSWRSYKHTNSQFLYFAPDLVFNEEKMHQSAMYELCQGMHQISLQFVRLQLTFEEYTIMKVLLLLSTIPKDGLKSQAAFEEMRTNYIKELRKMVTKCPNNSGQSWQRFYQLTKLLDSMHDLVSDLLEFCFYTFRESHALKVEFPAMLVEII
Description: MR Gal4-LBD luciferase reporter gene assay in HEK293T cells (antagonism of 0.8 nM aldosterone). Format: cell-based. From the text: By the characteristic of chemiluminescence reaction produced by combination of luciferase and substrate, a Gal4 DNA binding domain (DBD) fused plasmid containing a mineralocorticoid receptor (MR) ligand binding domain (LBD) and a firefly luciferase reporter gene plasmid under the control of Gal4 UAS (upstream activation sequence) were transfected into human embryonic kidney cells (HEK293). Changes of […] were judged by a level of firefly luciferase activity.
All compounds were dissolved in DMSO to prepare a 25 mM stock solution, and stored in a refrigerator at −20° C.
• 1) A compound to be tested was subjected to 3-times gradient dilution with the DMSO, with 10 concentration gradients and an initial concentration of 10 mM. • 2) A positive compound (Finerenone) was subjected to 3-times gradient dilution with the DMSO, with 10 concentration gradients and an initial concentration of 1 mM. • 3) 1000× positive control (1 mM, Finerenone) and 1000× negative control (100% DMSO) were prepared. • 4) A compound plate was sealed and shaken for 5 minutes.
• 5) All cells were cultured by ATCC standard operation, and HEK293T was experimented in an exponential growth phase. • 6) A culture medium supernatant was gently discarded. The cells were washed with PBS twice.
(3) The cells were digested with pancreatin digestive juice, the digestion was stopped with a complete culture solution, and then the cells were collected and counted.
(4) 6×10^6 HEK293T cells were inoculated into a 100 mm cell culture dish.
(5) The culture dish inoculated with the cells was cultured in a 5% CO2 incubator at 37° C. for 16 hours overnight.
• 1) Lipofectamine® 3000&P3000 transfection reagents were placed at room temperature. • 2) The Lipofectamine® 3000 reagent was added into an Opti-MEM™ culture medium, and meanwhile, the P3000, the plasmid and the Opti-MEM™ culture medium were added into another tube, taking care not to touch the tube wall. • 3) The mixture was mixed evenly by a pipette, and allowed to stand at room temperature for 5 minutes. • 4) The plasmid was added into the diluted transfection reagent, mixed evenly by a pipette, and allowed to stand at room temperature for 20 minutes. • 5) The transfection reagent mixed with the plasmid was added into a […] cell culture dish. • 6) The culture dish was cultured in a 5% CO2 incubator at 37° C. for 5 hours to 6 hours.
• 1) 25 nL of diluted compound was transferred to a cell culture plate with Echo655. • 2) The cells (referring to step 1.3) were inoculated into a 384 cell culture plate, with 17,000 cells, 25 μL of phenol red-free DMEM culture medium containing 5% CFBS and 0.8 nM Aldosteron per well.
(3) The cell culture plate was cultured in a 5% CO2 incubator at 37° C. for 18 hours to 20 hours overnight.
• 1) A Britelite plus detection reagent was placed at room temperature. 2) The 384 cell plate was placed at room temperature. • 3) 25 μL of Britelite plus detection reagent was added into each well of the cell culture plate. • 4) A luminescence was detected with Envision.
• 1) a firefly luciferase signal was obtained by reading the Luminescence to calculate an inhibition rate; • 2) % inhibition rate=100−[(RLU compound−avgRLU positive control)/(RLU negative control−avgRLU positive control)×100%, wherein the avgRLU positive control was an average value of Luminescences of all positive control wells in the whole plate; the avgRLU negative control was an average value of Luminescences of all negative control wells in the whole plate; and the RLU compound was Luminescence values of compounds to be tested with different concentrations; and • 3) IC50 of the compound was calculated by Graphpad8.0 Drawing software.
(In general: In a reporter assay the amount or activity of a reporter protein is the signal.)

With `CC1=C(C(N)=O)C(c2ccc(C#N)c3c2OCC3)c2c(OC3CCC3)ncc(C)c2N1` (stereo not drawn) [Example 21, 4-(4-cyano-2,3-dihydrobenzofuran-7-yl)-5-cyclobutoxy-2,8-dimethyl-1,4-dihydro-1,6-naphthyridine-3-formamide], the 50% inhibitory concentration (IC50) (as a rule, the point on the concentration scale where inhibition reaches its midpoint) stood at 20.2 nM.

As to `COc1cc(C#N)ccc1C1C(C#N)=C(C)Nc2c(C)cc3nncn3c21` (stereo not drawn) [Example 10, 9-(4-cyano-2-methoxyphenyl)-5,7-dimethyl-6,9-dihydro[1,2,4]triazolo[4,3-a][1,5]naphthyridine-8-carbonitrile], the 50% inhibitory concentration (IC50) came to 348 nM.

In the case of `COc1cc(C#N)ccc1C1C(C#N)=C(C)Nc2c(C)cn3nccc3c21` (stereo not drawn) [Example 7, 10-(4-cyano-2-methoxyphenyl)-6,8-dimethyl-7H,10H-pyrazolo[3,2-f]1,6-naphthyridine-9-carbonitrile], the IC50 came out at 322 nM.

Take `CCOc1nc2c(c3c1C(c1ccc(C#N)cc1OC)C(C(N)=O)=C(C)N3)CCC2` (stereo not drawn) [Example 4, 4-(4-cyano-2-methoxyphenyl)-5-ethoxy-2-methyl-4,7,8,9-tetrahydrocyclopentane-1H-cyclopentamide]: the IC50 is 111 nM.

On to `CC1=C(C(N)=O)C(c2ccc(C#N)c3c2OCC3)c2c(OC3CCCC3)ncc(C)c2N1` (stereo not drawn) [Example 15, 4-(4-cyano-2,3-dihydrobenzofuran-7-yl)-5-cyclopentoxy-2,8-dimethyl-1,4-dihydro-1,6-naphthyridine-3-formamide], for which the IC50 stood at 18.2 nM.

Consider `CC1=C(C(N)=O)C(c2ccc(C#N)c3c2OCC3)c2c(OCC3CCC3)ncc(C)c2N1` (stereo not drawn) [Example 22], for which the half-inhibitory concentration (IC50) was 8.7 nM.

As to `CCOc1ncc(C)c2c1C(c1ccc(C#N)cc1OC)C(c1nnco1)=C(C)N2` (stereo not drawn) [Example 2, 4-(5-ethoxy-2,8-dimethyl-3-(1,3,4-oxadiazole-2-yl)-1,4-dihydro-1,6-naphthyridine-4-yl)-3-methoxybenzonitrile], the IC50 stood at 48.9 nM.

Regarding `CCOc1ncc(C)c2c1C(c1ccc(C#N)cc1OC)C(c1nnc(C)o1)=C(C)N2` (stereo not drawn) [Example 3, 4-(5-ethoxy-2,8-dimethyl-3-(5-methyl-1,3,4-oxadiazole-2-yl)-1,4-dihydro-1,6-naphthyridine-4-yl)-3-methoxybenzonitrile], the half-maximal inhibitory concentration (IC50) came to 113 nM.

As for `COc1cc(C#N)ccc1C1C(C#N)=C(C)Nc2c1ccc1c2CCC1` (stereo not drawn) [Example 5, 4-(4-cyano-2-methoxyphenyl)-2-methyl-4,7,8,9-tetrahydrocyclopentane-3-carbonitrile], the 50% inhibitory concentration (IC50) was 235 nM.

`CC1=C(C(N)=O)C(c2ccc(C#N)c3c2OCC3)c2c(OCC3CC3)ncc(C)c2N1` (stereo not drawn) [Example 19, 4-cyano-2,3-dihydrobenzofuran-7-yl-5-cyclopropylmethoxy-2,8-dimethyl-1,4-dihydro-1,6-naphthyridine-3-formamide]: the IC50 is 27.7 nM.

For `CC1=C(C(N)=O)C(c2ccc(C#N)c3c2OCC3)c2c(OCC3CC(F)(F)C3)ncc(C)c2N1` (stereo not drawn) [Example 16], the IC50 was found to be 34.1 nM.

In the case of `CCOc1ncc(C)c2c1[C@H](c1ccc(C#N)c3c1OCCO3)C(C(N)=O)=C(C)N2` [Example 40, (S)-4-(8-cyano-2,3-dihydrobenzo[b][1,4]dioxin-5-yl)-5-ethoxy-2,8-dimethyl-1,4-dihydro-1,6-naphthyridine-3-formamide], the IC50 worked out at 12.7 nM.

Regarding `CCOc1ncc(C)c2c1C(c1ccc(C#N)c3c1OCO3)C(C(N)=O)=C(C)N2` (stereo not drawn) [Example 14, 4-(7-cyanobenzo[d][1,3]dioxacyclopenten-4-yl)-5-ethoxy-2,8-dimethyl-1,4-dihydro-1,6-naphthyridine-3-formamide], the concentration for half-maximal inhibition (IC50) was determined as 46.2 nM.

Consider `CCOc1ncc(C)c2c1C(c1ccc(C#N)cc1OC)C(c1ncco1)=C(C)N2` (stereo not drawn) [Example 1], for which the IC50 is 192 nM.

As for `CC1=C(C(N)=O)C(c2ccc(C#N)c3c2OCC3)c2c(OC(C)C)ncc(C)c2N1` (stereo not drawn) [Example 20, 4-(4-cyano-2,3-dihydro-1-benzofuran-7-yl)-5-isopropoxy-2,8-dimethyl-1,4-dihydro-1,6-naphthyridine-3-formamide], the 50% inhibitory concentration (IC50) worked out at 15.2 nM.

Turning to `CC1=C(C(N)=O)C(c2ccc(C#N)c3c2OCC3)c2c(OC(F)F)ncc(C)c2N1` (stereo not drawn) [Example 17, 4-(4-cyano-2,3-dihydrobenzofuran-7-yl)-5-(difluoromethoxy)-2,8-dimethyl-1,4-dihydro-1,6-naphthyridine-3-formamide], the half-inhibitory concentration (IC50) was 19.2 nM.

Consider `CC1=C(C(N)=O)C(c2ccc(C#N)c3c2OCC3)c2c(OCC(F)(F)F)ncc(C)c2N1` (stereo not drawn) [Example 24, 4-cyano-2,3-dihydrobenzofuran-7-yl-2,8-dimethyl-5-(2,2,2-trifluoroethoxy)-1,4-dihydro-1,6-naphthyridine-3-formamide], for which the half-maximal inhibitory concentration (IC50) came to 7.9 nM.

For `CC1=C(C(N)=O)C(c2ccc(C#N)c3c2OCC3)c2c(OC(F)(F)F)ncc(C)c2N1` (stereo not drawn) [Example 23, 4-cyano-2,3-dihydrobenzofuran-7-yl-2,8-dimethyl-5-trifluoromethoxy-1,4-dihydro-1,6-naphthyridine-3-formamide], the IC50 was determined as 24.8 nM.

Turning to `COc1cc(C#N)ccc1C1C(C#N)=C(C)Nc2sc3ccccc3c21` (stereo not drawn) [Example 8, 4-(4-cyano-2-methoxyphenyl)-2-methyl-1,4-dihydrobenzo[4,5]thieno[2,3-b]pyridine-3-carbonitrile], the IC50 was 20.4 nM.

Regarding `CCOc1ncc(C)c2c1C(c1ccc(C#N)c3c1OCCO3)C(C(N)=O)=C(C)N2` (stereo not drawn) [Example 25, 4-(8-cyano-2,3-dihydrobenzo[b][1,4]dioxin-5-yl)-5-ethoxy-2,8-dimethyl-1,4-dihydro-1,6-naphthyridine-3-formamide], the IC50 amounted to 37.5 nM.

Turning to `CCOc1nc2ccccc2c2c1C(c1ccc(C#N)cc1OC)C(C#N)=C(C)N2` (stereo not drawn) [Example 12, 4-(4-cyano-2-methoxyphenyl)-5-ethoxy-2-methyl-1H,4H-benzo[h]-1,6-naphthyridine-3-carbonitrile], the IC50 was 215 nM.

Regarding `CC1=C(C(N)=O)C(c2ccc(C#N)c3c2OCC3)c2c(OC3CC3)ncc(C)c2N1` (stereo not drawn) [Example 18, 4-(4-cyano-2,3-dihydrobenzofuran-7-yl)-5-cyclopropoxy-2,8-dimethyl-1,4-dihydro-1,6-naphthyridine-3-formamide], the IC50 worked out at 28.5 nM.

With `CCOc1nc2ccsc2c2c1C(c1ccc(C#N)cc1OC)C(C(N)=O)=C(C)N2` (stereo not drawn) [Example 13, 6-(4-cyano-2-methoxyphenyl)-5-ethoxy-8-methyl-6,9-dihydrothieno[3,2-h][1,6]naphthyridine-7-formamide], the IC50 came to 232 nM.

With `CCOc1ncc(C)c2c1[C@H](c1ccc(C#N)c3c1OCCC3)C(C(N)=O)=C(C)N2` [Example 32, (S)-4-(5-cyanored-8-yl)-5-ethoxy-2,8-dimethyl-1,4-dihydro-1,6-naphthyridine-3-formamide], the 50% inhibitory concentration (IC50) turned out to be 8 nM.

Turning to `CCOc1ncc(C)c2c1C(c1ccc(C#N)c3c1OCCC3)C(C(N)=O)=C(C)N2` (stereo not drawn) [Example 6, 4-(5-cyanored-8-yl)-5-ethoxy-2,8-dimethyl-1,4-dihydro-1,6-naphthyridine-3-formamide], the IC50 amounted to 21.6 nM.

As for `CCOc1nn(C)c2c1C(c1ccc(C#N)cc1OC)C(C#N)=C(C)N2` (stereo not drawn) [Example 9, 4-(4-cyano-2-methoxyphenyl)-3-ethoxy-1,6-dimethyl-4,7-dihydropyrazolo[3,4-b]pyridine-5-carbonitrile], the IC50 came out at 661 nM.

Turning to `CCOc1ncc(C)c2c1C(c1ccc(C#N)c3c1OCC3)C(C(N)=O)=C(C)N2` (stereo not drawn) [Example 11, 4-(4-cyano-2,3-dihydrobenzofuran-7-yl)-5-ethoxy-2,8-dimethyl-1,4-dihydro-1,6-naphthyridine-3-formamide], the 50% inhibitory concentration (IC50) amounted to 92.1 nM.
